Measurements taken from PMC10354055, “An optimized Nurr1 agonist provides disease-modifying effects in Parkinson’s disease models” (Nature Communications, 2023).
Several values for one entry are separate records, joined by “and”; a condition that tells them apart may be missing. Equal entries are not always repeated.

Key:
N27-A cells [1] = test: Mitochondrial activity assay, Seahorse XFp, N27-A cells; format: cell-based, rat; set-up: Seahorse time trace (OCR): unit not given here; details: for Seahorse time trace (OCR) / Basal respiration / Maximal respiration / ATP turnover: replicates; for Basal respiration: Fig. S1l; for Basal respiration / Maximal respiration / ATP turnover: with MPP+; for Maximal respiration: Fig. S1m; for ATP turnover: Fig. S1n; for OCR changes after FCCP injection: MPP+ co-treatment, individual replicates (Supplementary Figure S1o)
Description: Mitochondrial activity was measured using the Seahorse XFp analyzer (Agilent Technologies) according to the manufacturer’s instruction. Briefly, cells were plated onto wells of a XFp cell culture miniplate and incubated in a 37 °C incubator overnight. The assay was performed after cells were equilibrated for 1 h in XF assay medium supplemented with 10 mM D-glucose, 5 mM sodium pyruvate, and 2 mM glutamax in a non-CO2 incubator. Mitochondrial activity was monitored through sequential injections of 1 μM oligomycin, 2 μM carbonyl cyanide-4 (trifluoromethoxy) phenylhydrazone (FCCP) and 0.5 μM rotenone/antimycin A to calculate basal respiration (= baseline oxygen consumption rate (OCR)−rotenone/antimycin A OCR), maximal respiration (= FCCP OCR−rotenone/antimycin A OCR), ATP turnover (= baseline OCR−oligomycin OCR), and OCR changes after FCCP injection (= FCCP OCR−oligomycin OCR). Each plotted value was normalized to total protein quantified using a Bradford protein assay (Bio-Rad) and analyzed using the Seahorse WAVE Desktop software (Agilent Technologies).

N27-A cells [2] = test: Cellular oxidative stress, DCFDA ROS assay, N27-A cells; format: cell-based, rat; details: for ROS intensity (fold of control): Fig. S1i, with MPP+, replicates
Description: Cellular oxidative stress was detected using the DCFDA Cellular ROS Assay Kit (Abcam) according to the manufacturer’s protocol. Briefly, cells seeded in black clear bottom 96 well plate were stained with DCFDA solution (20 µM) for 45 min at 37 °C.

Nurr1 mRNA = Nurr1 mRNA level, qRT-PCR, MN9D cells; format: cell-based, mouse; details: for Relative Nurr1 mRNA expression (fold of Cont.): Fig. S4f; for Relative Nurr1 mRNA expression (fold of +GFP Basal): Fig. S4h
Description: Total RNA was extracted using the GeneJET RNA Purification Kit (Thermo Fisher Scientific) and 100 ng of RNA was subjected to cDNA synthesis using Invitrogen Superscript cDNA Synthesis Kit (Invitrogen) according to the manufacturer’s protocol. qRT-PCR was performed using a CFX Connect Real-Time System (Bio-Rad) in a 20 μl volume mixture containing 2X SsoAdvanced Universal SYBR Green Supermix (Bio-Rad), 100 ng/μl of forward and reverse primers, and 1 μl of cDNA sample. Gene expression levels were quantified by the 2^∆∆CT method (Ct of target gene—Ct of glyceraldehyde-3-phosphate dehydrogenase (GAPDH). The following primers were used for qRT-PCR: TH forward: 5′-[…]-3′, reverse: 5′-[…]-3′; DAT forward: 5′-[…]-3′, reverse: 5′-[…]-3′; AADC forward: 5′-[…]-3′, reverse: 5′-[…]-3′; VMAT2 forward: 5′-[…]-3′, reverse: 5′-[…]-3′; c-Ret forward: 5′-[…]-3′, reverse: 5′-[…]-3′; TNFα forward: 5′-[…]-3′; reverse: 5′-[…]-3′; GAPDH, forward 5′-[…]-3′, reverse 5′-[…]-3′.
Lenti-GFP, -αSyn^WT, and -αSyn^A53T viruses were generated separately by co-transfecting each shuttle plasmid with lentivirus packaging plasmids into HEK293T cells using lipofectamine 2000 (Invitrogen). Briefly, 2 μg each FUW inducible shuttle plasmid, 2 μg FUW-rtTA, 2 μg psPax2 and 1.5 μg MD2.G were mixed and transfected into HEK293T cells. After 48 h, viral supernatants were collected and centrifuged at 1000g for 10 min, and subsequently filtered through a 0.45 μm filter. Lentiviruses were transduced into MN9D cells with 8 μg/ml of polybrene and the viral supernatant was removed and replaced with fresh medium a day after transduction.

MPTP-induced male mice = test: Olfactory discrimination test, MPTP-induced PD model mice; format: in vivo, mouse
Description: MPTP (Sigma-Aldrich) was intraperitoneally (i.p.) injected (30 mg/kg) for 5 days (Day 1-5). […] To test dyskinetic involuntary behavior, an L-DOPA injected group was included, which received 50 mg/kg of L-DOPA and 15 mg/kg of benserazide (Sigma-Aldrich) (i.p.) for 16 days (Day 1–16). All compounds were administered 6 h post-MPTP injection to avoid any effect of compounds on the MPTP metabolism in the brain. Motor and non-motor related behavior tests were performed on the following days as described in Fig. 4a in an assessor- and observer-blinded fashion. Pre-training and baseline setup for motor-related behaviors were performed 3 days prior to the injections. Mice were sacrificed and subjected to immunohistochemistry. Mice were housed at the Animal Care Facilities of McLean Hospital under a 12-h light/12-h dark cycle, ambient temperature and humidity. Animals were handled in accordance with McLean Hospital’s Institutional Animal Care and Use Committee (Protocol #: 2015N000002) and followed National Institutes of Health guidelines.
The olfactory discrimination test was designed based on Prediger et al.. Briefly, mice were placed in a chamber (40 (w) × 20 (d) × 20 (h) cm) segmented with two identical compartments containing fresh sawdust (non-familiar odor) on one side and unchanged sawdust (familiar odor; maintained for 3 days before the test) on the other side. Mice could choose between one or another area by freely passing through an open door, for 5 min. Mice movements were monitored with EthoVision XT version 7.0 (Noldus) and time (s) and distance (cm) traveled in each compartment were recorded and analyzed.

## CCN1CCN(c2cc(N3CCN(CC)CC3)nc(NCCNc3ccnc4cc(Cl)ccc34)n2)CC1 [4A7C-301, N^1-(4,6-bis(4-ethylpiperazin-1-yl)pyrimidin-2-yl)-N^2-(7-chloroquinolin-4-yl)ethane-1,2-diamine]
N27-A cells [1]; Fig. S1j, Nurr1 OE + MPP+, time 74 min
  Seahorse time trace (OCR): 8.5 and 11.39 and 6.45 and 6.32
N27-A cells [1]; Fig. S1k, Nurr1 KD + MPP+, time 2 min
  Seahorse time trace (OCR): 9.8 and 10.5 and 12.93 and 13.97
N27-A cells [1]; Control cells
  Basal respiration: 19.37 pmol/min/µg protein and 19.34 pmol/min/µg protein and 12.02 pmol/min/µg protein and 10.67 pmol/min/µg protein
  Maximal respiration: 22.85 pmol/min/µg protein and 28.71 pmol/min/µg protein and 26.31 pmol/min/µg protein and 21.83 pmol/min/µg protein
  ATP turnover: 19.25 pmol/min/µg protein and 18 pmol/min/µg protein and 12.75 pmol/min/µg protein and 12.14 pmol/min/µg protein
N27-A cells [1]; Nurr1 KD cells
  Basal respiration: 6.31 pmol/min/µg protein and 5.78 pmol/min/µg protein and 7.24 pmol/min/µg protein and 8.35 pmol/min/µg protein
  Maximal respiration: 28.48 pmol/min/µg protein and 29.74 pmol/min/µg protein and 27.18 pmol/min/µg protein and 19.97 pmol/min/µg protein
  ATP turnover: 5.27 pmol/min/µg protein and 5.05 pmol/min/µg protein and 6.03 pmol/min/µg protein and 7.23 pmol/min/µg protein
N27-A cells [1]; Nurr1 OE cells
  Basal respiration: 19.17 pmol/min/µg protein and 26.73 pmol/min/µg protein and 28.79 pmol/min/µg protein and 22.43 pmol/min/µg protein
  Maximal respiration: 51.91 pmol/min/µg protein and 33.72 pmol/min/µg protein and 39.72 pmol/min/µg protein and 35.16 pmol/min/µg protein
  ATP turnover: 17.88 pmol/min/µg protein and 29.57 pmol/min/µg protein and 28.2 pmol/min/µg protein and 20.09 pmol/min/µg protein
N27-A cells [1]; Nurr1 KD N27-A cells
  OCR changes after FCCP injection: 27.63 pmol/min/µg protein and 29.1 pmol/min/µg protein and 27.24 pmol/min/µg protein and 20.05 pmol/min/µg protein
N27-A cells [1]; Nurr1 OE N27-A cells
  OCR changes after FCCP injection: 50.72 pmol/min/µg protein and 34.26 pmol/min/µg protein and 38.13 pmol/min/µg protein and 33.82 pmol/min/µg protein
N27-A cells [2]; CQ 100 µM, 4A7C-301 1 µM
  MPP+-induced ROS levels (in words): significantly reduced
N27-A cells [2]; Control cells
  ROS intensity (fold of control): 1.457 fold of control and 1.389 fold of control and 1.394 fold of control
N27-A cells [2]; Nurr1 KD cells
  ROS intensity (fold of control): 2.059 fold of control and 2.042 fold of control and 2.017 fold of control
N27-A cells [2]; Nurr1 OE cells
  ROS intensity (fold of control): 0.87 fold of control and 0.894 fold of control and 0.877 fold of control
Nurr1 mRNA; w/ MPP+
  Relative Nurr1 mRNA expression (fold of Cont.): 0.4287 fold of Cont. and 0.414 fold of Cont. and 0.4438 fold of Cont.
Nurr1 mRNA; w/o MPP+
  Relative Nurr1 mRNA expression (fold of Cont.): 1.004 fold of Cont. and 0.9452 fold of Cont. and 0.974 fold of Cont.
Nurr1 mRNA; + GFP
  Relative Nurr1 mRNA expression (fold of +GFP Basal): 1.067 fold of +GFP Basal and 0.9407 fold of +GFP Basal and 1.002 fold of +GFP Basal
Nurr1 mRNA; + αSynA53T
  Relative Nurr1 mRNA expression (fold of +GFP Basal): 0.5837 fold of +GFP Basal and 0.5113 fold of +GFP Basal and 0.5463 fold of +GFP Basal
Nurr1 mRNA; + αSynWT
  Relative Nurr1 mRNA expression (fold of +GFP Basal): 0.7154 fold of +GFP Basal and 0.8045 fold of +GFP Basal and 0.7587 fold of +GFP Basal
Nurr1 mRNA; MPP+ or αSyn overexpression
  Nurr1 mRNA levels (in words): did not alter
MPTP-induced male mice; CQ 40, 4A7C-301 5, L-DOPA 50 mg/kg/day, i.p.
  olfaction, olfactory discrimination test (in words): significantly restored
MPTP-induced male mice; Figure 4e, MPTP-induced mice, individual animal values
  Velocity: 4.45 cm/s and 5.11 cm/s and 5.02 cm/s and 4.95 cm/s and 5.52 cm/s and 4.32 cm/s and 6.05 cm/s and 4.65 cm/s and 4.59 cm/s
MPTP-induced male mice; Figure 4e, New bedding, MPTP-induced mice, individual animal values
  Duration to stay (sec), New bedding: 163.9 s and 142.98 s and 108.88 s and 102.84 s and 124.52 s and 121.25 s and 140.21 s and 123.92 s and 115.28 s
MPTP-induced male mice; Figure 4e, Old bedding, MPTP-induced mice, individual animal values
  Duration to stay (sec), Old bedding: 181.18 s and 132.3 s and 153.69 s and 187.59 s and 195.2 s and 172.27 s and 176.41 s and 155.62 s and 172.61 s
